Laboratory results published in patent US12459951B2, “Compounds that interact with RAS superfamily proteins for treatment of cancers, inflammatory diseases, rasopathies, and fibrotic disease” (SHY Therapeutics, LLC, priority 2022, dated 2025).

Assays:
Rac-1 = biological target: T1, Rac-1 (Homo sapiens, UniProt P63000); experiment: Ras GTP Binding Domain Inhibition Assay (Ras Superfamily Assay); conditions: read-out: Rac-1: % inh.
T1 construct: made in house
Text: (§1) Biological Example 3: Ras GTP Binding Domain Inhibition Assay
(§2) The assays described in Example 3 are collectively referred to as the “Ras Superfamily Assay” throughout this application.
(§3) A Ras Superfamily Activity Assay (as disclosed in International Application No. PCT/US2018/038613, filed Jun. 20, 2018, which is incorporated by reference in its entirety) was used as a specific assay to evaluate compounds against the following for the following Ras Superfamily proteins: KRas wild type, KRas Q61H mutant, KRas G12C mutant, KRas G12D mutant, Rac-1, and Rho-A.
(§4) • 25 mM Tris-HCl, pH 7.4 • 27 mM KCl • 137 mM NaCl • 1 mM MgCl2 • 1 mM DTT Buffer-II: • 50 mM Tris-HCl, pH 7.0 • 1 mM MgCl2 • 1 mM DTT
(§5) The small GTPases proteins: KRas wild type. KRas Q61H mutant, KRas G12C mutant, KRas G12D mutants, Rac-1, and Rho-A were expressed as His-tagged proteins. In addition, the Guanosine nucleotide Exchange Factor (GEF) Sos protein (residues 556-1049) was expressed as a His-tagged protein. In cells, the guanine nucleotide exchange factor Sos protein promotes activation of Ras proteins by stimulating an exchange of GDP for GTP. The inclusion of Sos to the Ras GTP binding domain inhibition assay may be considered as an alternative representation of physiological cellular conditions for evaluating the inhibitory activity of some of the tested small molecules.
(§6) For the assay, all purified small GTPases proteins were diluted in Buffer-I or Buffer-II to a final concentration of 10-30 μg/mL. 200 μL of each diluted protein was added to a nickel-coated 96-well plate and incubated overnight at 4° C. Then the protein solution was discarded and 200 μL of Buffer-I or Buffer-II was added to each well in the presence of 1% DMSO. Compounds to be tested were added to the protein-coated wells at final concentration of 20 μM, and incubated for 3 hours at room temperature with and without 10-30 μg/mL of Sos added to the final hour of the incubation. When performing IC50 measurements a serial dilution of all tested concentrations was added. Then Cy3-GTP or Cy5-GTP was added to each well to a final concentration of 100 nM. The labeled GTP was incubated for 45 minutes at room temperature. Following GTP incubation, wells were washed 3× in Buffer-I or Buffer-II and 200 μL of Buffer-I or Buffer-II was added to each well. Following washes, the amount of bound labeled-GTP was measured using a SpectraMax M3 (Molecular Devices).

KRas wild type = experiment: as above; conditions: 20 μM compound; for KRas wild type + SOS: % inh.: with SOS; for KRas wild type: % inh.: without SOS
Text: as §1, §2, §3, §4, §5, §6

KRas G12D mutant = experiment: as above; conditions: 20 μM compound; for KRas G12D mutant + SOS: % inh.: with SOS; for KRas G12D mutant: % inh.: without SOS
Text: as §1, §2, §3, §4, §5, §6

Akt phosphorylation = experiment: Akt Phosphorylation Assay (western blot), Panc-1; format: cell-based, human; conditions: at 10 μM, * = activation
Experimental: Protocol for Western Akt Cell-Based Phosphorylation Assay
This assay is referred to as the “Akt Phosphorylation Assay” throughout this application.
Human tumor-derived pancreatic cancer cell line Panc-1 (expressing KRas G12D mutant) was purchased from American Type Culture Collection and grown in complete DMEM-High Glucose supplemented with penicillin (100 U/mL), streptomycin (100 μg/mL), and 10% heat-inactivated FBS at 37° C. in a humidified incubator with 5% CO2.
Method 1: Cells were plated at 350000 cells/well density in a 12-well plate, allowed 3 hours to adhere to the plate, then starved in the appropriate medium in the presence of 0.5% FBS overnight. The small molecules to be tested were added to the cells in the final concentration of 10 μM in the presence of 0.3% DMSO for 6 hours incubation at 37° C. Next, cells were stimulated with 1.5 ng/ml EGF for 15 minutes then cells were lysed with lysis buffer containing 1% Triton X-100, EDTA, and Halt™ Protease & Phosphatase Inhibitor Cocktail (Thermo Scientific). Protein concentration was assessed by BCA protein assay (Thermo Scientific). Phosphorylation level of Akt was determined by western blot.
Method 2: Cells were plated at 350000 cells/well density in a 12-well plate in 10% FBS. The next day small molecules to be tested were added to the cells in the final concentration of 10 μM in the presence of 0.3% DMSO for 6 hours incubation at 37° C. For IC50 value determination, serial dilutions of compounds were added to cells under the same conditions. Next, cells were lysed with lysis buffer containing 1% Triton X-100, EDTA, and Halt™ Protease & Phosphatase Inhibitor Cocktail (Thermo Scientific). Protein concentration was assessed by BCA protein assay (Thermo Scientific). Phosphorylation level of Akt was determined by western blot.
Western blot protocol: Equal amounts of protein (15-50 μg) were separated by SDS-PAGE and transferred to nitrocellulose membranes (Invitrogen by Thermo Fisher Scientific). The membrane was stained with Ponceau S Stain (Boston BioProducts) to verify uniform protein loading. Membranes were blocked with 10% milk and phosphorylation levels of Akt were assessed by incubating overnight at 4° C. with anti-phospho-Akt (Ser473) antibody (Cell Signaling) followed by HRP-conjugated secondary antibody (Jackson Immunoresearch, West Grove, PA). Bands were incubated in Amersham ECL Prime Western Blotting Detection Reagent (GE Healthcare) and visualized using the ChemiDoc MP imaging system (Bio-Rad).

IL6 = experiment: IL-6 Quantification Assay (ELISA), LPS-stimulated RAW 264.7; format: cell-based; set-up: inhibition: dose or concentration left out as unconfirmed; conditions: Mus musculus, RAW264.7; read-out: IL-6: % inh.

Structure (SMILES)	inhibition at 20 µM (Rac-1)	KRas wild type + SOS: % inh. (KRas wild type)	KRas wild type: % inh. (KRas wild type)	KRas G12D mutant + SOS: % inh. (KRas G12D mutant)	KRas G12D mutant: % inh. (KRas G12D mutant)	% inh of Akt phosphorylation in Panc-1 (Akt phosphorylation)	inhibition (IL6)
COCCOc1cc(Nc2nc(-c3nccn3C)nn3cc(-c4ccn(C(C)C)n4)c(C)c23)ncn1 [Compound 122, 6-(1-Isopropyl-1H-pyrazol-3-yl)-N-(6-(2-methoxyethoxy)pyrimidin-4-yl)-5-methyl-2-(1-methyl-1H-imidazol-2-yl)pyrrolo[2,1-f][1,2,4]triazin-4-amine]	76 to 100%	D (D = 76-100% inhibition)	D (D = 76-100% inhibition)	D (D = 76-100% inhibition)	D (D = 76-100% inhibition)	C* (46-84% activation)	50 to 74%
Cc1c(-c2ccn(C)n2)cn2nc(-c3nccn3C)nc(Nc3ccncn3)c12.Cl [Compound 116, 5-Methyl-2-(1-methyl-1H-imidazol-2-yl)-6-(1-methyl-1H-pyrazol-3-yl)-N-(pyrimidin-4-yl)pyrrolo[2,1-f][1,2,4]triazin-4-amine hydrochloride salt]	50 to 75%	D (D = 76-100% inhibition)	C (C = 50-75% inhibition)	C (C = 50-75% inhibition)	C (C = 50-75% inhibition)	D* (85-100% activation)	25 to 49%
COc1cc(-c2cn3nc(-c4nccn4C)nc(N[C@H]4C[C@@H](OC)C4)c3c2C)ccn1 [Compound 162, N-((1s,3s)-3-Methoxycyclobutyl)-6-(2-methoxypyridin-4-yl)-5-methyl-2-(1-methyl-1H-imidazol-2-yl)pyrrolo[2,1-f][1,2,4]triazin-4-amine]	0%	0 (0 = 0% inhibition)	A (A = 1-25% inhibition)	0 (0 = 0% inhibition)	0 (0 = 0% inhibition)	B (26-49% inhibition)	25 to 49%
Cc1c(-c2ccn(C3CC3)n2)cn2nc(-c3nccn3C)nc(Nc3cc(OCCCO)ccn3)c12 [Compound 149, 3-((2-((6-(1-Cyclopropyl-1H-pyrazol-3-yl)-5-methyl-2-(1-methyl-1H-imidazol-2-yl)pyrrolo[2,1-f][1,2,4]triazin-4-yl)amino)pyridin-4-yl)oxy)propan-1-ol]	76 to 100%	D (D = 76-100% inhibition)	D (D = 76-100% inhibition)	D (D = 76-100% inhibition)	D (D = 76-100% inhibition)	D* (85-100% activation)	75 to 100%
Cc1c(-c2ccn(C3CC3)n2)cn2nc(-c3nccn3C)nc(Nc3cc(OCC(F)(F)F)ccn3)c12 [Compound 140, 6-(1-Cyclopropyl-1H-pyrazol-3-yl)-5-methyl-2-(1-methyl-1H-imidazol-2-yl)-N-(4-(2,2,2-trifluoroethoxy)pyridin-2-yl)pyrrolo[2,1-f][1,2,4]triazin-4-amine]	76 to 100%	C (C = 50-75% inhibition)	C (C = 50-75% inhibition)	D (D = 76-100% inhibition)	C (C = 50-75% inhibition)	D* (85-100% activation)	50 to 74%
Cc1c(-c2ccn(C(C)C)n2)cn2nc(-c3nccn3C)nc(Nc3cc(OCCO)ncn3)c12 [Compound 97, 2-((6-((6-(1-Isopropyl-1H-pyrazol-3-yl)-5-methyl-2-(1-methyl-1H-imidazol-2-yl)pyrrolo[2,1-f][1,2,4]triazin-4-yl)amino)pyrimidin-4-yl)oxy) ethan-1-ol]	76 to 100%	D (D = 76-100% inhibition)	D (D = 76-100% inhibition)	D (D = 76-100% inhibition)	D (D = 76-100% inhibition)	D* (85-100% activation)	1 to 24%
COc1ccnc(Nc2nc(-c3nccn3C)nn3cc(-c4cccnc4)c(C)c23)n1 [Compound 158, N-(4-Methoxy-pyrimidin-2-yl)-5-methyl-2-(1-methyl-1H-imidazol-2-yl)-6-(pyridin-3-yl)pyrrolo[2,1-f][1,2,4]triazin-4-amine]	76 to 100%	D (D = 76-100% inhibition)	D (D = 76-100% inhibition)	D (D = 76-100% inhibition)	D (D = 76-100% inhibition)	D* (85-100% activation)	1 to 24%
Cc1ccnc(Nc2nc(-c3nccn3C)nn3cc(-c4ccn(C5CC5)n4)c(C)c23)c1 [Compound 144, 6-(1-Cyclopropyl-1H-pyrazol-3-yl)-5-methyl-2-(1-methyl-1H-imidazol-2-yl)-N-(4-methylpyridin-2-yl)pyrrolo[2,1-f][1,2,4]triazin-4-amine]	76 to 100%	D (D = 76-100% inhibition)	C (C = 50-75% inhibition)	D (D = 76-100% inhibition)	D (D = 76-100% inhibition)	B* (26-49% activation)	25 to 49%
